In patent publication US20050220888A1, “Controlled release compositions and methods for using same” (priority 2002, published 2005):
Counter-ions that a name gives are not always drawn.

Legend:
[1] = system: IL-6 production by HUVEC cells; assay: Inhibition of histamine-induced IL-6 mRNA production (RT-PCR against HPRT); type: cell-based, human; conditions: 5 hours
Description: Various assays also exist for identifying a highest pharmacological activity enantiomer of a given pharmacologically active agent. Where the pharmaceutical activity is as a histamine antagonist, IL-6 production by HUVEC cells is a cell biomarker of histamine activity and is used to assess the relative antagonistic activity of prospective H1 blockers. IL-6 production in human endothelial cells is known to be induced by histamine due to H1 and H2 receptor binding with H1 the dominant effect. Delneste, et al. As H1 antagonism is directly linked to reduced emesis during motion sickness treatment, this assay serves as an in vitro methodology for the selection of potential motion sickness and antihistamine candidates. Realtime RT-PCR analysis of IL-6 mRNA synthesis in HUVEC cells stimulated with histamine is employed as an in vitro assay for the analysis of the relative efficacy of potential antihistaminic agents.
A preferred assay for measuring activity of phenothiazine and other histamine antagonists comprises: providing at least a first viable culture and a second viable culture comprising Huvec cells; exposing the first viable culture to a first combination comprising histamine and the (+)-enantiomer of the phenothiazine under conditions effective to inhibit IL-6 mRNA expression; exposing the second viable culture to a combination comprising histamine and the (−)-enantiomer of the phenothiazine under conditions effective to inhibit IL-6 mRNA expression; measuring inhibition of IL-6 mRNA expression induced by the first combination and the second combination after at least four hours to identify a (+)-enantiomer inhibition value and a (−)-enantiomer inhibition value; and selecting as the highest pharmacological activity enantiomer the enantiomer having the greater inhibition value selected from the group consisting of the (+)-enantiomer inhibition value and the (−)-enantiomer inhibition value.
Huvec cells were plated and grown to confluence in 6-well plates. […] Total RNA was isolated using Tri-reagent and subjected to reverse transcription polymerase chain reaction (RT-PCR) analysis of IL-6 production using semiquantitative analysis against HPRT expression (control gene).
The procedures of Example 3 were repeated using the (+)-enantiomer (#2) and the (−)-enantiomer (#1) of EPZ at 10^−5 molar and 10^−6 molar, and TPZ at 10^−5 molar.

[2] = system: L929 lung fibroblast; conditions: shown by previous studies; cited from earlier work
[3] = encapsulated in a variety of shell materials, administered to beagles; cited from earlier work

NCCc1c[nH]cn1 [Histamine]
increase in IL-6 mRNA production ([1]; Histamine alone 10^−4 M, versus endogenous production): 50%

C=C(C)C(=O)OCC(O)COc1ccc(C(C)(C)c2ccc(OCC(O)COC(=O)C(=C)C)cc2)cc1 (stereo not drawn) [BisGMA]
cytotoxicity of control in this assay [2]: significantly cytotoxic

CC(CN1c2ccccc2Sc2ccccc21)N(C)C (racemic) [Promethazine, promethazine hydrochloride]
nasal irritation [3]: severe nasal irritation was observed
inhibition of histamine stimulation of IL-6 production ([1]; 10^−5 M with Histamine 10^−4 M, relative to cells stimulated only with histamine): 50%

CC(CN1c2ccccc2Sc2ccccc21)N(C)C.Cl (single isomer, unassigned; (-)) [(−) enantiomer, (−)-Promethazine hydrochloride]
reduction in IL-6 production ([1]; 10^−5 M with Histamine 10^−4 M): 50%

CC(CN1c2ccccc2Sc2ccccc21)N(C)C.Cl (single isomer, unassigned; (+)) [(+) enantiomer, (+)-Promethazine hydrochloride]
IL-6 production reduced to % of the histamine stimulated cell ([1]; 10^−5 M with Histamine 10^−4 M): 90%
